Measurements reported in PMC7516806, “Hybrid Antimicrobial Peptide Targeting Staphylococcus aureus and Displaying Anti-infective Activity in a Murine Model” (Frontiers in Microbiology, 2020).
Values after ≈ are worked out from the molar mass of the structure shown. Positions of bridges follow the written chain, without caps; N, C: chain ends. Residues, ends and D or L forms follow the SMILES beside them.

Tests used:
[1] = Systemic toxicity after intraperitoneal injection; format: in vivo, mice; conditions: 100 μL
Protocol: The mice were inoculated by intraperitoneal injection with 100 μL of S2 (80 MIC), and saline was used as the control. Signs of animal distress and changes in body weight were closely monitored. After five days, all the mice were euthanized, and the blood biochemistry parameters were determined ([Mishra et al., 2019]).

[2] = test system: Staphylococcus aureus 29213; experiment: Bacterial resistance development, serial passaging; format: cell-based; conditions: serial passage at sub-MIC for 15 days
Source text: Staphylococcus aureus 29213 was employed to assess the development of resistance by the serial passaging method, as previously described ([Lyu et al., 2017]). Minimum inhibitory concentration testing was first conducted for all of the compounds to be tested, as described above. S. aureus was harvested from 96-well plates of sub-MIC levels, diluted in MHB to a concentration of 2–7 × 10^5 CFU/mL, and then subjected to MIC determination for up to 15 days. The change in MIC values determines the development of antibiotic resistance in S. aureus.

[3] = test system: Staphylococcus aureus 29213; experiment: Propidium iodide uptake assay; format: cell-based; conditions: 0.5 × MIC, MIC and 2 × MIC; 10 μg/mL PI; ex 535 nm, em 617 nm
Protocol: Staphylococcus aureus 29213 was washed three times with buffer (5 mM HEPES, 5 mM glucose, pH 7.4) after the bacterium grew to the mid-log phase and then diluted to an OD600 = 0.05. Propidium iodide was then added to the final concentration of 10 μg/mL and incubated for 30 min at 4°C. The peptides were added to 12-well plates, which were filled with 2 mL of the cell suspension. An F-4500 fluorescence spectrophotometer (Hitachi, Japan) was employed to measure the fluorescence value at an excitation wavelength of 535 nm and an emission wavelength of 617 nm. Maximal augmentation was monitored, and the fluorescence of the mixture of bacteria and dye served as the blank control ([Morita et al., 2015]).

[4] = test system: S. aureus 25923; experiment: MIC, modified microtiter dilution; format: cell-based, Staphylococcus aureus; conditions: MHB, 2–7 × 10^5 CFU/ml, 37°C, 24 h, no turbidity, at least three independent repeats
Source text: (§1) The experiment was repeated at least three times independently.

[5] = test system: S. aureus 29213; experiment: MIC, modified microtiter dilution; format: cell-based, Staphylococcus aureus; conditions: MHB, 2–7 × 10^5 CFU/ml, 37°C, 24 h, no turbidity, at least three independent repeats
Source text: as §1

[6] = test system: S. aureus ATCC 29213; experiment: Time-dependent killing kinetics; format: cell-based, Staphylococcus aureus; conditions: six independent trials
Protocol: The logarithmic phase S. aureus ATCC 29213 cells were harvested by centrifugation at 1000 × g for 5 min, washed twice with PBS, and diluted to 2–7 × 10^5 CFU/mL. S. aureus was treated with AMPs at various concentrations, including 0.125, 0.25, 0.5, 1, and 2 × MIC. At various time intervals (5 s, 10 s, 30 s, 1 min, 5 min, 10 min, and 30 min), 50 μL of bacterial solution was diluted and plated on MHA plates. Bacterial colonies were counted after 24 h of incubation at 37°C. The results were carried out in six independent trials.

[7] = test system: P. aeruginosa 27853; experiment: MIC, modified microtiter dilution; format: cell-based, Pseudomonas aeruginosa; conditions: MHB, 2–7 × 10^5 CFU/ml, 37°C, 24 h, no turbidity, at least three independent repeats
Source text: as §1

[8] = test system: S. typhimurium 7731; experiment: MIC, modified microtiter dilution; format: cell-based, Salmonella typhimurium; conditions: MHB, 2–7 × 10^5 CFU/ml, 37°C, 24 h, no turbidity, at least three independent repeats
Source text: as §1

[9] = test system: S. typhimurium 14028; experiment: MIC, modified microtiter dilution; format: cell-based, Salmonella typhimurium; conditions: MHB, 2–7 × 10^5 CFU/ml, 37°C, 24 h, no turbidity, at least three independent repeats
Source text: as §1

[10] = test system: lipoteichoic acid (LTA) from S. aureus; experiment: LTA binding, BODIPY-TR-cadaverine displacement; set-up: species or system Staphylococcus aureus; conditions: comparison among peptides, BC displacement
Protocol: Peptides binding to LTA were assayed using the BC (Sigma, United States) displacement method ([Zorko and Jerala, 2008]). The final concentration of 50 μg/mL LTA from S. aureus was incubated with 5 μg/mL BC in Tris-HCl buffer (50 mM, pH 7.4) for 4 h in a shaking incubator at 37°C. The peptides were then serially diluted in Tris–HCl buffer, and an equal volume solution was added to the 96-well plates. The fluorescence was measured (excitation λ = 580 nm, emission λ = 620 nm) on a spectrofluorophotometer (Infinite 200 Pro, Tecan, China). The experiment was conducted three times independently.

[11] = test system: GM-CSF; experiment: Cytokine ELISA in infected skin; format: in vivo, ICR mice; conditions: 24 h after treatment, P < 0.05
Protocol: (§2) To assess the antimicrobial activity of the peptide in vivo, a mouse model of subcutaneous infection was used ([Huang et al., 2011a]; [Omolo et al., 2017]). Female Institute for Cancer Research (ICR) mice (SPF, 20–25 g) were purchased from WeiTonglihua Co., Ltd. (Beijing, China), with eight animals per group. The mice were shaved on their backs and disinfected. S. aureus 29213 (100 μL) at a concentration of 1 × 10^8 CFU/mL was injected into the superficial skin of the mice. The mice were divided into four groups (n = 4), as follows: S. aureus + saline, S. aureus + S2 (80× MIC, 100 μL), S. aureus + vancomycin (Van) (80× MIC, 100 μL), and saline. S2, vancomycin, and saline were injected at the same site 1 h after infection. The mice were monitored over 24 h in an environmentally controlled room at 25 ± 1°C and 55 ± 5% relative humidity with a 12 h light/dark cycle.
(§3) The mice were treated as described above. Skin samples were treated according to the manufacturer’s instructions. The levels of tumor necrosis factor-alpha (TNF-α), interleukin-6 (IL-6), and granulocyte-macrophage colony-stimulating factor (GM-CSF) in infected skin were measured using enzyme-linked immunosorbent assay (ELISA) kits following the manufacturer’s instructions.

[12] = test system: IL-6; experiment: Cytokine ELISA in infected skin; format: in vivo, ICR mice; conditions: 24 h after treatment, P < 0.05
Protocol: as §2, §3

[13] = test system: TNF-α; experiment: Cytokine ELISA in infected skin; format: in vivo, ICR mice; conditions: 24 h after treatment, P < 0.05
Protocol: as §2, §3

[14] = test system: E. coli UB1005; experiment: MIC, modified microtiter dilution; format: cell-based, Escherichia coli; conditions: MHB, 2–7 × 10^5 CFU/ml, 37°C, 24 h, no turbidity, at least three independent repeats
Source text: as §1

[15] = test system: E. coli 25922; experiment: MIC, modified microtiter dilution; format: cell-based, Escherichia coli; conditions: MHB, 2–7 × 10^5 CFU/ml, 37°C, 24 h, lowest concentration with no turbidity, at least three independent repeats
Source text: as §1

[16] = mean, intraperitoneal 80 MIC, after five days

Q: For `CC(C)C[C@H](NC(=O)[C@H](CC(C)C)NC(=O)[C@H](Cc1c[nH]c2ccccc12)NC(=O)[C@H](Cc1c[nH]c2ccccc12)NC(=O)[C@H](Cc1c[nH]c2ccccc12)NC(=O)[C@H](CCCNC(=N)N)NC(=O)[C@@H]1CSSC[C@H](N)C(=O)N[C@@H](C)C(=O)N[C@@H](CO)C(=O)N[C@@H](Cc2ccc(O)cc2)C(=O)N[C@@H](Cc2ccccc2)C(=O)N1)C(N)=O` [Peptide S2] (H-CASYFCRWWWLL-NH2; disulfide 1-6; N-terminus assumed), which “blood parameters versus saline treatment group” value ([1]; intraperitoneal, 80 MIC, after five days) is on record?
A: unaltered

Q: And the “clinical signs of toxicity” value ([1]; intraperitoneal, 80 MIC, monitored five days)?
A: no clinical signs indicative of toxicity

Q: And the “blood Cl-” value [1, 16]?
A: 111.25 mmol/L

Q: And the blood Creatinine [1, 16]?
A: 12.4 µM

Q: And the “blood Glucose” value [1, 16]?
A: 10.17 mmol/L

Q: What about the “blood I.Phos.” value [1, 16] of the same molecule?
A: 2.335 mmol/L

Q: And the “blood K+” value [1, 16]?
A: 5.84 mmol/L

Q: And the “blood Na+” value [1, 16]?
A: 149 mmol/L

Q: And the “blood Urea” value [1, 16]?
A: 9.43 mmol/L

Q: And the “change in MIC value, 15th day versus first day” value [2]?
A: remained almost constant

Q: And the “PI uptake (PI fluorescence)” value [3]?
A: rapidly disrupted the bacterial membrane and caused PI uptake

Q: And the “MIC S. aureus 25923” value [4]?
A: 8 µM (≈ 13 µg/mL)

Q: What about the “MIC S. aureus 29213” value [5] of the same molecule?
A: 8 µM (≈ 13 µg/mL)

Q: And the “bacterial reduction in S. aureus” value ([6]; 0.5 × MIC, after 5 s of exposure, PBS, 2–7 × 10^5 CFU/mL)?
A: 2 log10

Q: And the “time of peptide exposure for 100% bacterial killing” value ([6]; at 2 × MIC)?
A: 30 s

Q: And the “time of peptide exposure for 100% bacterial killing” value ([6]; at MIC)?
A: 60 s

Q: And the “MIC P. aeruginosa 27853” value [7]?
A: >64 µM

Q: What about the “MIC S. typhimurium 7731” value [8] of the same molecule?
A: >64 µM

Q: What about the “MIC S. typhimurium 14028” value [9] of the same molecule?
A: >64 µM

Q: What about the “relative binding capacity to LTA” value [10] of the same molecule?
A: stronger binding capacity to LTA than S1 and S3

Q: What about the “GM-CSF levels in infected skin versus control group and Van group” value [11] of the same molecule?
A: significantly higher

Q: What about the “IL-6 generation in infected skin” value [12] of the same molecule?
A: suppressed

Q: What about the “TNF-α generation in infected skin” value [13] of the same molecule?
A: suppressed

Q: And the “MIC E. coli UB1005” value [14]?
A: >64 µM

Q: And the “MIC E. coli 25922” value [15]?
A: >64 µM
